# Earlier results as cited in patent publication US11065330B2, “Induction of antigen-specific tolerance by peripheral phagocytosis” (PLS-Design GmbH, priority 2014, dated 2021).
# Entries after “also recorded” stand apart in the source; their conditions may differ. Where two headings read alike, the source gives them in different places. Where no end group is shown, it is not given here.
# B1: Q116D/Y119D: murine IL-4 double mutant inhibiting IL-4/IL-13-mediated effects (protein, UniProt P07750 21-140, looked up, variant Q116D Y119D)
# Interleukin-4: HIHGCDKNHLREIIGILNEVTGEGTPCTEMDVPNVLTATKNTTESELVCRASKVLRIFYLKHGKTPCLKKNSSVLMELQRLFRAFRCLDSSISCTMNESKSTSLKDFLESLKSIMDMDDS
# Tests used:
# [1] = target: murine CD22 (Mus musculus, UniProt P35329)
# murine CD22, sequence (P35329 22-868): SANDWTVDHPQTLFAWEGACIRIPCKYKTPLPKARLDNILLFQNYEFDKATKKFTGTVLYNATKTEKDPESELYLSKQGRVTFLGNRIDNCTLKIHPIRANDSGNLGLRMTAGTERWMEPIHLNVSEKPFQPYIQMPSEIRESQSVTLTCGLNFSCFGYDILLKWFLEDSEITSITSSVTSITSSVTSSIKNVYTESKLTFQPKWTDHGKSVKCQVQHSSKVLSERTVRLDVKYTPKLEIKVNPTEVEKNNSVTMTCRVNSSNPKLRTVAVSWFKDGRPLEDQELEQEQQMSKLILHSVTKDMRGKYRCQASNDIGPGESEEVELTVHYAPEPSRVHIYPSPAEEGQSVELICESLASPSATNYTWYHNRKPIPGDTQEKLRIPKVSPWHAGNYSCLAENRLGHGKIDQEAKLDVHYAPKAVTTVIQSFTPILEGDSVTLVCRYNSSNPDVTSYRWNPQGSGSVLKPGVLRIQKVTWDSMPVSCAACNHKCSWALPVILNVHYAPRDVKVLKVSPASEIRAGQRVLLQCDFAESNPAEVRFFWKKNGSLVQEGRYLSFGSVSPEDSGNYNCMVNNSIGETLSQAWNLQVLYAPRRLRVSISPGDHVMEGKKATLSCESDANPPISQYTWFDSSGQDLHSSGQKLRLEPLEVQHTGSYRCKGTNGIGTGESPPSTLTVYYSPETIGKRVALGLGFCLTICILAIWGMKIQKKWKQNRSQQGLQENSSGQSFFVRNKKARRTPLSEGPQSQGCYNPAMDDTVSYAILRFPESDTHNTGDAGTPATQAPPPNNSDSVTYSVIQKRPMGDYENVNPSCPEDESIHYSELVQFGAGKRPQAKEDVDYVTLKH
# [2] = tested on: NOD mice
# [3] = for solubility in 1:5 solution of ethanol:PBS: 1:5 ethanol:PBS, pH 7.2
# [4] = tested on: Lyme arthritis and collagen-induced arthritis in mice; details: diet, 20 ng/mouse/day
# [5] = tested on: EAE model; details: i.p. 5 μg/kg every 2 days
# [6] = tested on: OVA-induced allergic asthma in mice; details: 10 ng with 100 μg OVA immunotherapy
# [7] = tested on: human polymorphonuclear leukocyte (PMN) transendothelial migration; details: read-out: EC50, reduction of PMN transendothelial migration
# [8] = tested on: mouse model of peritonitis; details: 100 ng dose
# [9] = tested on: multiple sclerosis
# [10] = tested on: IL-4 gene transcription; details: read-out: concentration for 50% inhibition
# [11] = tested on: NF-kappa B translocation; details: read-out: concentration for 50% inhibition
# [12] = tested on: phagocytes; details: for maximal migration of phagocytes, increase: at about 100 nM
# [13] = tested on: isolated rat cardiomyocytes; set-up: dose or concentration left out as unconfirmed; details: preincubation 2-3 hours, GSM or exogenous NAC
# [14] = tested on: ovalbumin-specific IgE and IgG1 responses
# [15] = tested on: cystic fibrosis; details: oral 600 mg to 1000 mg three times daily, 4 weeks
# [16] = tested on: peripheral blood T cells
# [17] = not given; remark: listed apart in the source
# [18] = tested on: intestinal ischaemia/reperfusion injury model; details: 10 mg/kg i.v., rats
# [19] = tested on: rheumatoid arthritis; details: three months, on methotrexate
# [20] = tested on: calcium metabolism; details: compared to 1,25-(OH)2D3
# [21] = tested on: OVA-induced allergy in mice; details: topical calcipotriol, then transcutaneous OVA with CpG adjuvant
# [22] = tested on: psoriasis; details: more than 10 years clinical use
# [23] = for time detectable in serum by HPLC: rats
# [24] = tested on: asthma exacerbation; details: six months, budesonide 800 μg/d and cholecalciferol 500 IU
# [25] = tested on: alternative pathway of complement activation (C3) in sera from rats; details: read-out: IC50 of haemolytic activity
# [26] = tested on: alternative pathway of complement activation (C3) in sera from guinea pigs; details: read-out: IC50 of haemolytic activity
# [27] = tested on: baboon model of Escherichia coli sepsis; details: 10 mg/kg i.v. bolus then 60 μg/kg/min infusion
# [28] = tested on: alternative pathway of complement activation (C3) in sera from mice; details: read-out: IC50 of haemolytic activity
# [29] = tested on: NOD/Lt mice
# [30] = human, in vivo
# [31] = tested on: adjuvant arthritis
# [32] = tested on: type 1 diabetes
# [33] = tested on: IL-4/IL-13-mediated effects in murine model of allergy; details: 50 μg pre and post OVA, then 30 μg twice a day, day 1 to 8
# [34] = tested on: OVA-induced allergic airway inflammation; details: intranasal 10 μg every fourth day, 3 weeks
# [35] = 1.0 g/liter in drinking water, 8 days
molecule,measurement,setting,value
9-biphenylacetyl-N-glycolylneuraminic acid-α2-6-galactose-β1-4-N-acetylglucosamine-β-ethylamine [6′-^BPANeuGc],"affinity for murine CD22, fold higher than natural ligand NeuGcα2-6Galβ1-4GlcNAc-β-ethylamine",[1],200 fold
"C=C1/C(=C\C=C2/CCC[C@]3(C)[C@@H]([C@H](C)CCCC(C)(C)O)CC[C@@H]23)C[C@@H](O)C[C@@H]1O [1,25-(OH)2D3, 1α,25-dihydroxyvitamin D3]",diabetes development,[2],prevented the development of diabetes; also recorded: prevented diabetes onset
same,solubility in 1:5 solution of ethanol:PBS,[3],approx. 0.15 mg/ml
same,solubility in ethanol,[3],approx. 50 mg/ml
same,progression of arthritis and hypercalcemia,[4],effective in inhibiting the progression of arthritis without producing hypercalcemia
same,treated mice in which appearance of paralysis was prevented,[5],70%
same,airway hyper-responsiveness,[6],significantly inhibited airway hyper-responsiveness
CC/C=C\C[C@@H](O)/C=C/C=C\C=C\C=C\[C@@H](O)[C@@H](O)C/C=C\CCC(=O)O [17(R)-Resolvin D1],EC50,[7],~0.03 µM
same,maximal inhibition of leukocyte infiltration,[8],~35%
C=C1CC[C@H](O)C/C1=C/C=C1\CCC[C@]2(C)[C@@H]([C@H](C)CCCC(C)(C)O)CC[C@@H]12 [25-OH-D3],adverse effects,"[9]; 1,000 to 40,000 IU/day",no adverse effects
same,number of new lesions by MRI,"[9]; oral 4,000-40,000 IU/day, 28 weeks",significant decrease in the number of new lesions
same,serum level to be kept to avoid toxicity,based on experiments in the rat,below 250 ng/ml
same,serum level at which toxicity occurs,"rat, in vivo",≥ 500 ng/mL
"CC(=O)Oc1ccccc1C(=O)O [ASA, acetylsalicylic acid]",IC50,[10],~1000 µM
same,IC50,[11],~3000 µM
Nc1ncnc2c1ncn2[C@@H]1O[C@H](COP(=O)(O)OP(=O)(O)OP(=O)(O)O)[C@@H](O)[C@H]1O [ATP],concentration effecting maximal migration of phagocytes,[12],about 100 nM
same,"maximal migration of phagocytes, increase",[12],threefold
"CSC[C@H](NC(=O)CC[C@H](N)C(=O)O)C(=O)NCC(=O)O [GSM, S-Methylglutathione]",protection against deleterious effects of TNF-alpha on contraction,[13],protected
"CC(=O)N[C@@H](CS)C(=O)O [NAC, N-acetyl-L-cysteine]",decrease of ovalbumin-specific IgE,[14]; 0.5 g/liter in drinking water,~30%
same,decrease of ovalbumin-specific IgG1,[14]; 0.5 g/liter in drinking water,~30%
same,decrease of ovalbumin-specific IgE response,[14]; [35],more than 70%
same,decrease of ovalbumin-specific IgG1 response,[14]; [35],more than 70%
same,protection against deleterious effects of TNF-alpha on contraction,[13],not protected
same,safety and efficacy of high doses,[15],safe and effective
same,cytotoxicity in resting T cells,"[16]; 1 mM to 20 mM, 3 day period, seven donors",nontoxic
same,T cell function and growth,[16]; 10 mM,effective enhancer of T cell function
"O=C([O-])c1ccccc1O.[Na+] [SA, sodium salicylate]",solubility in water,[3]; 20° C.,2000 µg/mL
NC(N)=NCCC[C@H](NC(=O)COCC(c1ccccc1)c1ccccc1)C(=O)O [SB290157],in vivo half-life,[17],short in vivo half-life
same,blood pressure effect,[18],rapid and transient hypertension
O=c1ccn([C@@H]2O[C@H](COP(=O)(O)OP(=O)(O)OP(=O)(O)O)[C@@H](O)[C@H]2O)c(=O)[nH]1 [UTP],concentration effecting maximal migration of phagocytes,[12],about 100 nM
same,"maximal migration of phagocytes, increase",[12],threefold
C=C1/C(=C\C=C2/CCC[C@]3(C)[C@@H]([C@H](C)CCCC(C)C)CC[C@@H]23)C[C@@H](O)C[C@@H]1O [alfacalcidiol],patients going into remission,[19],45%
same,patients with improvement of disease activity,[19],89%
C=C1/C(=C\C=C2/CCC[C@]3(C)[C@@H]([C@H](C)/C=C/[C@@H](O)C4CC4)CC[C@@H]23)C[C@@H](O)C[C@@H]1O [calcipotriol],solubility in 1:5 solution of ethanol:PBS,[3],approx. 0.15 mg/ml
same,solubility in ethanol,[3],approx. 50 mg/ml
same,"effect on calcium metabolism, times less than 1,25-(OH)2D3",[20],100-200 times
same,antigen-specific CD8+ T cell priming,[21],abolished antigen-specific CD8+ T cell priming
same,systemic toxicity on topical use,[22],without systemic toxicity
same,time detectable in serum by HPLC,[23]; i.v. 10 μg/kg,up to 5 min
same,time detectable in serum by HPLC,[23]; i.v. 50 μg/kg,up to 10 min
same,"rate of clearance, times higher than for 1,25-(OH)2D3","[23]; rat, in vivo",approximately 140 times
C=C1CC[C@H](O)C/C1=C/C=C1\CCC[C@]2(C)[C@@H]([C@H](C)CCCC(C)C)CC[C@@H]12 [cholecalciferol],children experiencing asthma exacerbation,[24],17%
CC[C@H](C)[C@H](N)C(=O)N[C@H]1CSSC[C@@H](C(=O)N[C@H](C(N)=O)[C@@H](C)O)NC(=O)[C@H](CCCN=C(N)N)NC(=O)[C@H](Cc2cnc[nH]2)NC(=O)[C@H](Cc2cnc[nH]2)NC(=O)CNC(=O)[C@H](Cc2c[nH]c3ccccc23)NC(=O)[C@H](CC(=O)O)NC(=O)[C@H](CCC(N)=O)NC(=O)[C@H](C(C)C)NC(=O)[C@H](C(C)C)NC1=O [compstatin],IC50,[25],[…]
same,procoagulant response and organ protection,[27],decrease the procoagulant response
CC/C=C\C[C@H](O)/C=C/C=C\C=C\C=C\[C@@H](O)[C@@H](O)C/C=C\CCC(=O)O [resolvin D1],EC50,[7],~0.03 µM
MT-hsp65: 65 kDa heat shock protein of Mycobacterium tuberculosis,diabetes development,[29]; single i.p. 50 μg emulsified in IFA,developed within 30 days after the treatment diabetes
same,diabetes development,[29]; single i.p. injection in PBS,did not cause the development of diabetes
PMX53,half-life,[17]; in vivo,1.17 h
same,safety and tolerability,[30],safe and well tolerated
TFGLQLELT [nonapeptide 180-188],rats showing clinical symptoms of adjuvant arthritis during pretreatment,"[31]; i.p. 100 μg in FIA, 35 days before induction",none of the rats
same,rats completely protected against subsequently induced adjuvant arthritis,[31]; three times 100 μg in FIA before induction,11 out of 16
vitamin D,relative risk of type 1 diabetes over the subsequent 30 years,[32]; doses of exactly 50 μg/day,0.22
same,relative risk of type 1 diabetes over the subsequent 30 years,[32]; doses of over 50 μg/day (2000 IU/d) during infancy,0.14
B1,humoral immune responses to OVA and allergic symptoms,[33],completely abrogated
same,outcome versus SIT with OVA only,[34],did not produce significantly different results
